Data published in patent publication US6506339B1, “Method of sterilization” (Biomedical Design, Inc., priority 1997, dated 2003).

Key:
[1] = test system: Mycobacterium Chelonae ATCC 35752; experiment: Sterilization test, Mycobacterium chelonae in sterile cups at room temperature (Example 1); format: cell-based; parameters: key: (+) Indicates growth; (−) indicates no growth; conditions: 10 mM EDC+1 mM Sulfo-NHS
Method: Porcine aortic roots are fixed by cross-linking according to the method described in U.S. Pat. No. 5,447,536. After fixation, the valves are stored in 10 mM HEPES, 0.85% NaCl, 20% isopropyl alcohol, pH 7.4, at 4° C. The sterility tests described in the following examples are in most cases conducted in the presence of bioprosthetic heart valve tissue; when such tissue is not present, the solutions are simply filtered through a 0.45 micron filter attached to a funnel (filter funnel). The filters are then rinsed with peptone water to eliminate residual chemicals on the membrane that may prevent growth of the organisms tested. Such membrane filters are then incubated on TSA plates at about 32° to 33° C., e.g. 32.5° C. When an aortic valve is inoculated with microorganisms for test purposes and then submitted to sterilization, the solution is filtered as described above. The aortic valve tissue is then washed for 20 minutes in a reciprocating shaker in the presence of peptone water containing Tween 80 in order to extract all indigenous spores or microorganisms from the tissue. This solution is filtered and then incubated as described above. All microbiological testing is performed in a biological laminar flow hood to prevent contamination. The shrinkage temperature and the proteolytic (collagenase and protease) degradation tests are conducted as previously described in the '536 patent. Resistance to calcification is assessed by subdermal implantation of sterilized leaflets and aortic wall coupons in young rats, as also described in the '536 U.S. patent.
Mycobacterium Chelonae ATCC 35752 (˜10^5) was inoculated in sterile cups. A 10 mM HEPES, 0.85% NaCl, pH 6.5 solution containing 10 mM EDC and 1 mM Sulfo-NHS in the presence or absence of 20% isopropyl alcohol was maintained in contact with the bacteria in the cups for various periods of time (treatment duration). The cups were maintained at room temperature, and the solutions were then filtered. The filters were then incubated at about 32-33° C. for up to 6 weeks (incubation duration) using either Trypticase Soy Agar (TSA) plates or Trypticase Soy Broth (TSB). All inoculations were done in duplicate.

[2] = test system: Bacillus subtilis (niger) spores; experiment: D values of EDC without isopropyl alcohol, 40° C. (Example 4A); format: cell-based; conditions: no isopropyl alcohol; for incubation duration necessary to achieve 6 log reduction: calculated from D value
Method: The following experiment was carried out to assess the effectiveness of a coupling agent, such as EDC, in the absence of isopropyl alcohol or an equivalent alkanol. Bacillus subtilis (niger) spores at levels of 1.5×10^6 were inoculated in sterile cups for approximately 10 minutes. Solutions (50 ml) of 25, 37.5 and 50 mM EDC in 10 mM TRIS, 0.85% NaCl, pH 6.5, which contain no isopropyl alcohol, were prewarmed to 40° C. and then rapidly added to the cups. The cups were incubated at 40° C. for 0.5, 1, 6, 24 and 48 hours; then, the solutions were diluted and filtered in order to collect microorganisms. Next, the filters were rinsed with a 0.1% peptone water solution to eliminate any residual EDC and then incubated on TSA plates for up to 14 days. The plates were examined every day for growth, with the colony forming units (CFUs) being counted, and resulting D values were calculated. Such D values represent the duration (in minutes) of incubation to decrease the level of spores by one log, i.e. eliminating 90% of the spores population.

## CCN=C=NCCCN(C)C.Cl [EDC, 1-ethyl-3(3-dimethylaminopropyl)carbodiimide hydrochloride]
[1]; 20% isopropyl alcohol, treatment 0 hour, incubation 3 Week, TSA
  growth: +,+
[1]; 20% isopropyl alcohol, treatment 0 hour, incubation 3 Week, TSB
  growth: +,+
[1]; 20% isopropyl alcohol, treatment 0 hour, incubation 4 Week, TSA
  growth: +,+
[1]; 20% isopropyl alcohol, treatment 0 hour, incubation 4 Week, TSB
  growth: +,+
[1]; 20% isopropyl alcohol, treatment 0 hour, incubation 6 Week, TSA
  growth: +,+
[1]; 20% isopropyl alcohol, treatment 0 hour, incubation 6 Week, TSB
  growth: +,+
[1]; no isopropyl alcohol, treatment 0 hour, incubation 1 Day, TSA
  growth: +,+
[1]; no isopropyl alcohol, treatment 0 hour, incubation 1 Day, TSB
  growth: +,+
[1]; no isopropyl alcohol, treatment 0 hour, incubation 1 Week, TSA
  growth: +,+
[1]; no isopropyl alcohol, treatment 0 hour, incubation 1 Week, TSB
  growth: +,+
[1]; no isopropyl alcohol, treatment 0 hour, incubation 3 Week, TSA
  growth: +,+
[1]; no isopropyl alcohol, treatment 0 hour, incubation 3 Week, TSB
  growth: +,+
[1]; no isopropyl alcohol, treatment 0 hour, incubation 4 Week, TSA
  growth: +,+
[1]; no isopropyl alcohol, treatment 0 hour, incubation 4 Week, TSB
  growth: +,+
[1]; no isopropyl alcohol, treatment 0 hour, incubation 6 Week, TSA
  growth: +,+
[1]; no isopropyl alcohol, treatment 0 hour, incubation 6 Week, TSB
  growth: +,+
[1]; no isopropyl alcohol, treatment 12 hours, incubation 1 Day, TSA
  growth: +,+
[1]; no isopropyl alcohol, treatment 12 hours, incubation 1 Day, TSB
  growth: +,+
[1]; no isopropyl alcohol, treatment 12 hours, incubation 1 Week, TSA
  growth: +,+
[1]; no isopropyl alcohol, treatment 12 hours, incubation 1 Week, TSB
  growth: +,+
[1]; no isopropyl alcohol, treatment 12 hours, incubation 3 Week, TSA
  growth: +,+
[1]; no isopropyl alcohol, treatment 12 hours, incubation 3 Week, TSB
  growth: +,+
[1]; no isopropyl alcohol, treatment 12 hours, incubation 4 Week, TSA
  growth: +,+
[1]; no isopropyl alcohol, treatment 12 hours, incubation 4 Week, TSB
  growth: +,+
[1]; no isopropyl alcohol, treatment 12 hours, incubation 6 Week, TSA
  growth: +,+
[1]; no isopropyl alcohol, treatment 12 hours, incubation 6 Week, TSB
  growth: +,+
[1]; no isopropyl alcohol, treatment 24 hours, incubation 1 Day, TSA
  growth: −,−
[1]; no isopropyl alcohol, treatment 24 hours, incubation 1 Day, TSB
  growth: −,−
[1]; no isopropyl alcohol, treatment 24 hours, incubation 1 Week, TSA
  growth: +,+
[1]; no isopropyl alcohol, treatment 24 hours, incubation 1 Week, TSB
  growth: +,+
[1]; no isopropyl alcohol, treatment 24 hours, incubation 3 Week, TSA
  growth: +,+
[1]; no isopropyl alcohol, treatment 24 hours, incubation 3 Week, TSB
  growth: +,+
[1]; no isopropyl alcohol, treatment 24 hours, incubation 4 Week, TSA
  growth: +,+
[1]; no isopropyl alcohol, treatment 24 hours, incubation 4 Week, TSB
  growth: +,+
[1]; no isopropyl alcohol, treatment 24 hours, incubation 6 Week, TSA
  growth: +,+
[1]; no isopropyl alcohol, treatment 24 hours, incubation 6 Week, TSB
  growth: +,+
[1]; no isopropyl alcohol, treatment 48 hours, incubation 1 Day, TSA
  growth: −,−
[1]; no isopropyl alcohol, treatment 48 hours, incubation 1 Day, TSB
  growth: −,−
[1]; no isopropyl alcohol, treatment 48 hours, incubation 1 Week, TSA
  growth: −,−
[1]; no isopropyl alcohol, treatment 48 hours, incubation 1 Week, TSB
  growth: −,−
[1]; no isopropyl alcohol, treatment 48 hours, incubation 3 Week, TSA
  growth: −,−
[1]; no isopropyl alcohol, treatment 48 hours, incubation 3 Week, TSB
  growth: −,−
[1]; no isopropyl alcohol, treatment 48 hours, incubation 4 Week, TSA
  growth: −
[1]; no isopropyl alcohol, treatment 48 hours, incubation 4 Week, TSB
  growth: +
[1]; no isopropyl alcohol, treatment 48 hours, incubation 6 Week, TSA
  growth: −
[1]; no isopropyl alcohol, treatment 48 hours, incubation 6 Week, TSB
  growth: +
[1]; no isopropyl alcohol, treatment 72 hours, incubation 1 Day, TSA
  growth: −,−
[1]; no isopropyl alcohol, treatment 72 hours, incubation 1 Day, TSB
  growth: −,−
[1]; no isopropyl alcohol, treatment 72 hours, incubation 1 Week, TSA
  growth: −,−
[1]; no isopropyl alcohol, treatment 72 hours, incubation 1 Week, TSB
  growth: −,−
[1]; no isopropyl alcohol, treatment 72 hours, incubation 3 Week, TSA
  growth: −,−
[1]; no isopropyl alcohol, treatment 72 hours, incubation 3 Week, TSB
  growth: −,−
[1]; no isopropyl alcohol, treatment 72 hours, incubation 4 Week, TSA
  growth: −,−
[1]; no isopropyl alcohol, treatment 72 hours, incubation 4 Week, TSB
  growth: −,−
[1]; no isopropyl alcohol, treatment 72 hours, incubation 6 Week, TSA
  growth: −
[1]; no isopropyl alcohol, treatment 72 hours, incubation 6 Week, TSB
  growth: +
[2]; 25 mM EDC
  D value (duration of incubation to decrease the level of spores by one log): 203 minutes
  incubation duration necessary to achieve 6 log reduction: 24 hours
[2]; 37.5 mM EDC
  D value (duration of incubation to decrease the level of spores by one log): 106 minutes
  incubation duration necessary to achieve 6 log reduction: 11 hours
[2]; 50 mM EDC
  D value (duration of incubation to decrease the level of spores by one log): 86 minutes
  incubation duration necessary to achieve 6 log reduction: 9 hours
